Test results: patent US6828327B2, “Macroheterocylic compounds useful as kinase inhibitors” (Ortho-McNeil Pharmaceutical, Inc., priority 2000, dated 2004)

Experiments:
PKC α = PKC α (Homo sapiens, UniProt P17252); assay: Protein Kinase C Scintillation Proximity Assay (SPA), PKC-α; assay type: biochemical; design: purchased PanVera, Madison Wis; host or cells: baculovirus expression vector; conditions: inhibition value, recombinant human isozyme, 1 μM ATP
Experimental: The binding activity of a compound for Protein Kinase C (PKC) was assessed using a homogeneous Scintillation Proximity Assay according to the procedure below.
The reaction was incubated for 15 min at 30° C. Reactions were terminated by the addition of streptavidin-coated SPA beads (Amersham) in a solution containing 1 mM EGTA, 10 mM EDTA and 100 μM ATP. Beads were allowed to settle overnight and the plates read in a Wallac MICROBETA scintillation counter (PerkinElmer Life sciences, Wellesley, Mass.).

L6 muscle cells = assay: Cell-Based GSK 3-β Assay (glycogen content of L6 muscle cells); conditions: for 14C-Glucose Incorporation (dpm): L6 cells, 2 hours, 0.0 μM control Cpd 1 1640, Cpd 2 2078; for glycogen synthesis in L6 skeletal muscle cells: upon exposure to compound, result in words
Experimental: Glycogen content of L6 muscle cells was measured according to the method described in Berger and Hayes, Anal. Biochem., 1998, 261, 159-163.
Briefly, L6 cells were serum starved overnight in alpha-MEM containing 0.1%. On the following day, cells were washed three times with 300 μL KRPH buffer (150 mM NaCl, 5 mM KCl, 2.9 mM Na2HPO4, 1.25 mM MgSO4, 1.2 mM CaCl2, 10 mM HEPES, pH 7.4) and labeled with 200 μL alpha-MEM containing 5.5 mM ^14C-Glucose (0.1 μCi) in the presence of vehicle (DMSO) or compounds. After 2 hours, cells were washed three times with ice-cold PBS and glycogen was precipitated for 2 hours using ice-cold 66% EtOH. Precipitated glycogen was then washed three times with ice-cold 66% EtOH and ^14C-glycogen was quantified using a TopCount (Packard).
Compounds were tested in separate experiments at the dose levels shown. Where shown, the 0.0 μM dose was used as a control.

| IC50 (PKC α) | SMILES | 14C-Glucose Incorporation (dpm) (L6 muscle cells; dose 1 μM) | 14C-Glucose Incorporation (dpm) (L6 muscle cells; dose 3 μM) | 14C-Glucose Incorporation (dpm) (L6 muscle cells; dose 10 μM) | glycogen synthesis in L6 skeletal muscle cells (L6 muscle cells) |
| --- | --- | --- | --- | --- | --- |
| 1.21 µM | O=C1NC(=O)C2=C1c1cn(c3ccccc13)CCOCCOCCOCCn1cc2c2cccnc21 [Cpd 11] |  |  |  |  |
| 5.36 µM | O=C1NC(=O)C2=C1c1cn(c3ccccc13)CCOCCOCCn1cc2c2cccnc21 [Cpd 10] |  |  |  |  |
|  | O=C1NC(=O)C2=C1c1cn(c3ncccc13)CCOCCOCCOCCn1cc2c2cccnc21 [Cpd 1] | 1898 dpm | 1958 dpm | 2426 dpm | increased glycogen synthesis |
|  | O=C1NC(=O)C2=C1c1cn(c3ncccc13)CCOCCOCCOCCOCCn1cc2c2cccnc21 [Cpd 2] | 2224 dpm | 2518 dpm | 2806 dpm | increased glycogen synthesis |
